“And” between values parts separate entries of the source, which are not always exact repeats. Equal entries are not always repeated. Where two headings read alike, the source gives them in different places.
Assays:
rat α-thrombin = biological target: T1, rat α-thrombin (Rattus norvegicus, UniProt P18292); assay: Protease inhibition, Ki for rat α-thrombin (fluorogenic substrate Z-Gly-Gly-Arg-AMC); assay type: biochemical; conditions: rat alpha thrombin; for Slope normalized to DMSO (proteolytic substrate cleavage over time): replicates R1-R3
T1 construct: rat α-thrombin (Molecular Innovations) were used at final concentrations of 2 nM and 3 nM; purchased Molecular Innovations
Outline: (§1)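 Ki values come from Cheng–Prusoff correction of IC50, itself fitted by four-parameter logistic regression of activity versus a no-peptide control. Assays used 2 nM human or 3 nM rat thrombin, 50 μM Z-Gly-Gly-Arg-AMC, 30 min kinetic fluorescence at 25 °C.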

porcine pepsin = biological target: T2, porcine pepsin (Sus scrofa, UniProt P00791); assay: Peptide stability in simulated gastric fluid (SGF); assay type: in vitro ADME
T2 construct: 0.32 g of porcine pepsin (Sigma-Aldrich, P7125) was dissolved under gentle agitation; purchased Sigma-Aldrich P7125
Outline: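 Peptide from a 1 mM DMSO stock was added to fluid pre-warmed at 37 °C. SGF was pH 1.2 NaCl with porcine pepsin (0.32 g per 100 ml), and SIF was pH 6.8 potassium phosphate with porcine pancreatin (1 g per 100 ml). Supernatant peptide was quantified by LC–MS, with residual expressed as T1/T0.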

[1] = Metabolic stability in rat liver microsomes (RLMs); conditions: for microsomal CLint / half-life: rat
human α-thrombin = human α-thrombin (Homo sapiens, UniProt P00734); assay: Protease inhibition, Ki for human α-thrombin (fluorogenic substrate Z-Gly-Gly-Arg-AMC); assay type: biochemical; conditions: human alpha thrombin; for Slope normalized to DMSO (proteolytic substrate cleavage over time): replicates R1-R3
Outline: as §1

[2] = Passive artificial membrane permeability (PAMPA)

T2 sequence (P00791 60-385): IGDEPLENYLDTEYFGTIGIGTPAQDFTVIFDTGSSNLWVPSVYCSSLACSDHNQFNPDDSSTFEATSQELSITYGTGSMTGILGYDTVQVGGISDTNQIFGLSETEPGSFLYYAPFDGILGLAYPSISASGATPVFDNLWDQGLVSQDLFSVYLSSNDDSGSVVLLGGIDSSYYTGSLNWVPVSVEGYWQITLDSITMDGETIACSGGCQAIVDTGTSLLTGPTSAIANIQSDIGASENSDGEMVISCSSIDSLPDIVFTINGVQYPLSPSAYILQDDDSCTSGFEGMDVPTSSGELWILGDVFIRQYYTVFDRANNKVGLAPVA

- Ki (rat α-thrombin; average of R1-R3, read-out: Ki Average, rat alpha thrombin inhibition): 6.1 nM
- Slope normalized to DMSO (proteolytic substrate cleavage over time) (rat α-thrombin; peptide 1.02E-03 uM): 78.7 and 76.8 and 72.0
- Slope normalized to DMSO (proteolytic substrate cleavage over time) (rat α-thrombin; peptide 1.04E+00 uM): 7.3 and 7.7 and 6.8
- Slope normalized to DMSO (proteolytic substrate cleavage over time) (rat α-thrombin; peptide 1.27E-04 uM): 95.1 and 95.2 and 91.8
- Slope normalized to DMSO (proteolytic substrate cleavage over time) (rat α-thrombin; peptide 1.30E-01 uM): 20.8 and 21.8 and 17.8
- Slope normalized to DMSO (proteolytic substrate cleavage over time) (rat α-thrombin; peptide 1.59E-05 uM): 100.8 and 100.5 and 95.6
- Slope normalized to DMSO (proteolytic substrate cleavage over time) (rat α-thrombin; peptide 1.63E-02 uM): 48.6 and 45.6 and 41.9
- Slope normalized to DMSO (proteolytic substrate cleavage over time) (rat α-thrombin; peptide 1.67E+01 uM): 5.6 and 6.1 and 3.4
- Slope normalized to DMSO (proteolytic substrate cleavage over time) (rat α-thrombin; peptide 2.03E-03 uM): 77.5 and 75.6 and 71.7
- Slope normalized to DMSO (proteolytic substrate cleavage over time) (rat α-thrombin; peptide 2.08E+00 uM): 5.5 and 7.4 and 5.0
- Slope normalized to DMSO (proteolytic substrate cleavage over time) (rat α-thrombin; peptide 2.54E-04 uM): 90.6 and 89.3 and 85.2
- Slope normalized to DMSO (proteolytic substrate cleavage over time) (rat α-thrombin; peptide 2.60E-01 uM): 14.5 and 13.9 and 10.9
- Slope normalized to DMSO (proteolytic substrate cleavage over time) (rat α-thrombin; peptide 3.18E-05 uM): 98.5 and 99.4 and 94.0
- Slope normalized to DMSO (proteolytic substrate cleavage over time) (rat α-thrombin; peptide 3.26E-02 uM): 34.9 (2×) and 30.9
- Slope normalized to DMSO (proteolytic substrate cleavage over time) (rat α-thrombin; peptide 3.33E+01 uM): 5.6 and 5.2 and 4.6
- Slope normalized to DMSO (proteolytic substrate cleavage over time) (rat α-thrombin; peptide 4.07E-03 uM): 74.5 and 73.2 and 65.7
- Slope normalized to DMSO (proteolytic substrate cleavage over time) (rat α-thrombin; peptide 4.17E+00 uM): 6.0 and 6.5 and 4.6
- Slope normalized to DMSO (proteolytic substrate cleavage over time) (rat α-thrombin; peptide 5.09E-04 uM): 86.5 and 86.6 and 79.6
- Slope normalized to DMSO (proteolytic substrate cleavage over time) (rat α-thrombin; peptide 5.21E-01 uM): 8.9 and 10.7 and 8.6
- Slope normalized to DMSO (proteolytic substrate cleavage over time) (rat α-thrombin; peptide 6.36E-05 uM): 95.0 and 93.8 and 92.2
- Slope normalized to DMSO (proteolytic substrate cleavage over time) (rat α-thrombin; peptide 6.51E-02 uM): 29.2 and 28.9 and 23.7
- Slope normalized to DMSO (proteolytic substrate cleavage over time) (rat α-thrombin; peptide 6.67E+01 uM): 6.0 and 6.3 and 4.0
- Slope normalized to DMSO (proteolytic substrate cleavage over time) (rat α-thrombin; peptide 7.95E-06 uM): 103.6 and 102.5 and 98.1
- Slope normalized to DMSO (proteolytic substrate cleavage over time) (rat α-thrombin; peptide 8.14E-03 uM): 62.2 and 57.8 and 53.3
- Slope normalized to DMSO (proteolytic substrate cleavage over time) (rat α-thrombin; peptide 8.33E+00 uM): 4.9 and 6.7 and 5.0
- IC50 (rat α-thrombin; single replicates R1-R3, read-out: IC50, rat alpha thrombin inhibition): 13 nM and 10.8 nM and 9.19 nM
- SGF stability, Residual peptide Average (porcine pepsin; after 8 h vs 0 h (TIC), average of R1-R3): 99.21
- SGF stability, Residual peptide (porcine pepsin; after 8 h vs 0 h (TIC), single replicates R1-R3): 107.50 and 92.24 and 97.90
- remaining at 8 h (porcine pepsin; simulated gi fluid, 8 h, 37 °C, pH 1.2, read-out: Proteolytic stability: SGF (8 h) % remaining): 99 ± 8%
- TIC value of compound, 0 min, R1 ([1]; rat liver microsomes, 0 min, replicate R1): 12429096
- TIC value of compound, 0 min, R3 ([1]; rat liver microsomes, 0 min, replicate R3): 11063826
- TIC value of compound, 5 min, R1 ([1]; rat liver microsomes, 5 min, replicate R1): 11351623
- TIC value of compound, 5 min, R3 ([1]; rat liver microsomes, 5 min, replicate R3): 10806046
- TIC value of compound, 15 min, R1 ([1]; rat liver microsomes, 15 min, replicate R1): 7245055
- TIC value of compound, 15 min, R3 ([1]; rat liver microsomes, 15 min, replicate R3): 6630237
- TIC value of compound, 30 min, R1 ([1]; rat liver microsomes, 30 min, replicate R1): 4320756
- TIC value of compound, 30 min, R3 ([1]; rat liver microsomes, 30 min, replicate R3): 3830533
- TIC value of compound, 60 min, R1 ([1]; rat liver microsomes, 60 min, replicate R1): 1228797
- TIC value of compound, 60 min, R3 ([1]; rat liver microsomes, 60 min, replicate R3): 1213522
- microsomal CLint ([1]; CL (ul/min/mg protein), R1, RLM CL, replicate R1, unrounded): 69.7 µL/min/mg
- microsomal CLint ([1]; CL (ul/min/mg protein), R2, RLM CL, replicate R2, unrounded): 85.6 µL/min/mg
- microsomal CLint ([1]; CL (ul/min/mg protein), R3, RLM CL, replicate R3, unrounded): 66.4 µL/min/mg
- half-life ([1]; Half Life (min), R1, RLM metabolic stability, replicate R1): 19.9 min
- half-life ([1]; Half Life (min), R2, RLM metabolic stability, replicate R2): 16.2 min
- half-life ([1]; Half Life (min), R3, RLM metabolic stability, replicate R3): 20.9 min
- half-life ([1]; microsomes, Metabolic stability: Half life T1/2 (min), RLMs, mean and SD, three measurements): 19 ± 2 min
- microsomal CLint ([1]; microsomes, Metabolic stability: RLM CL (ul/min/mg), RLMs, mean and SD, three measurements): 74 ± 8 µL/min/mg
- microsomal CLint ([1]; microsomes, RLM CL, Average, average of R1-R3): 73.9 µL/min/mg
- microsomal CLint ([1]; microsomes, RLM CL, R1, RLM CL, replicate R1, summary block): 69.7 µL/min/mg
- microsomal CLint ([1]; microsomes, RLM CL, R2, RLM CL, replicate R2, summary block): 85.6 µL/min/mg
- microsomal CLint ([1]; microsomes, RLM CL, R3, RLM CL, replicate R3, summary block): 66.4 µL/min/mg
- Ki (human α-thrombin; average of R1-R3, read-out: Ki Average, human alpha thrombin inhibition): 21 nM
- Slope normalized to DMSO (proteolytic substrate cleavage over time) (human α-thrombin; peptide 1.02E-03 uM): 77.8 and 82.6 and 87.7
- Slope normalized to DMSO (proteolytic substrate cleavage over time) (human α-thrombin; peptide 1.27E-04 uM): 85.2 and 86.3 and 97.5
- Slope normalized to DMSO (proteolytic substrate cleavage over time) (human α-thrombin; peptide 1.30E-01 uM): 23.7 and 29.7 and 31.1
- Slope normalized to DMSO (proteolytic substrate cleavage over time) (human α-thrombin; peptide 1.59E-05 uM): 99.4 and 93.2 and 99.6
- Slope normalized to DMSO (proteolytic substrate cleavage over time) (human α-thrombin; peptide 1.63E-02 uM): 62.9 (2×) and 53.3
- Slope normalized to DMSO (proteolytic substrate cleavage over time) (human α-thrombin; peptide 2.03E-03 uM): 91.1 and 82.2 and 86.6
- Slope normalized to DMSO (proteolytic substrate cleavage over time) (human α-thrombin; peptide 2.54E-04 uM): 95.6 and 96.7 and 91.7
- Slope normalized to DMSO (proteolytic substrate cleavage over time) (human α-thrombin; peptide 2.60E-01 uM): 14.6 and 25.5 and 20.4
- Slope normalized to DMSO (proteolytic substrate cleavage over time) (human α-thrombin; peptide 3.18E-05 uM): 103.9 and 99.1 and 101.2
- Slope normalized to DMSO (proteolytic substrate cleavage over time) (human α-thrombin; peptide 3.26E-02 uM): 46.1 and 40.2 and 49.8
- Slope normalized to DMSO (proteolytic substrate cleavage over time) (human α-thrombin; peptide 4.07E-03 uM): 82.6 and 77.6 and 83.2
- Slope normalized to DMSO (proteolytic substrate cleavage over time) (human α-thrombin; peptide 5.09E-04 uM): 88.5 and 86.7 and 91.9
- Slope normalized to DMSO (proteolytic substrate cleavage over time) (human α-thrombin; peptide 5.21E-01 uM): 17.1 and 15.0
- Slope normalized to DMSO (proteolytic substrate cleavage over time) (human α-thrombin; peptide 6.36E-05 uM): 96.5 and 103.5 and 97.9
- Slope normalized to DMSO (proteolytic substrate cleavage over time) (human α-thrombin; peptide 6.51E-02 uM): 35.9 and 37.8 and 41.0
- Slope normalized to DMSO (proteolytic substrate cleavage over time) (human α-thrombin; peptide 7.95E-06 uM): 100.7 and 95.5 and 98.4
- Slope normalized to DMSO (proteolytic substrate cleavage over time) (human α-thrombin; peptide 8.14E-03 uM): 73.2 and 59.3 and 66.6
- IC50 (human α-thrombin; single replicates R1-R3, read-out: IC50, human alpha thrombin inhibition): 30.2 nM and 20 nM and 31.5 nM
- PAMPA permeability: % permeability ([2]; 50 μM, 12–18 h, acceptor concentration relative to equilibrium): 37 ± 1%
- Papp at 50 μM ([2]; PAMPA, pH 7.4): 4.57 ×10⁻⁶ cm/s
- Permeability% Average ([2]; top well sample vs theoretical equilibrium sample (TIC), average of R1-R3): 37.0%
- Permeability% ([2]; top well sample vs theoretical equilibrium sample (TIC), single replicates R1-R3): 36.96% and 38.34% and 35.81%
Compound: O=C1C[C@H]2CCCN2C(=O)[C@H](Cc2ccccc2)NC(=O)[C@@H](NC(=O)c2ccc(Cl)s2)CCSC/C=C/CSCCN1 [compound 34]
- Ki (rat α-thrombin; single replicates R1-R3, read-out: Ki, rat alpha thrombin inhibition): 7.18 nM and 6.01 nM (2×) and 5.09 nM (2×) and 7.19 nM
- Ki (human α-thrombin; single replicates R1-R3, read-out: Ki, human alpha thrombin inhibition): 23.3 nM (2×) and 15.4 nM (2×) and 24.2 nM (2×)
